Assays:
[1] = system: Redroot pigweed (AMARE), variant known to exhibit triazine tolerance; type: in vivo; settings: 13 days after application; for effect on tolerant plants (in words): rates of Table 1
Description: (§1) The soil was a silty clay loam mixed with fertiliser (12-12-12) at the rate of 128 g fertiliser to 10 gallons of soil.
(§2) The tolerant seeds were planted 13 days earlier than the non-tolerant seeds in order to get the seedlings to a similar size by the time the herbicide was applied. The time difference in planting was based on earlier observations of germination speed. On application of the herbicides, the tolerant plants had reached the 6-9 leaf stage, and the non-tolerant plants the 5-leaf stage.
(§3) Herbicide solutions were made by dissolving the herbicide(s) in tap water containing 0.5% of a commercial surfactant, ‘Tween 20’. The solutions were applied at […] and 40 p.s.i pressure, using an 80015E nozzle. After spraying, the plants were placed in a glasshouse at 29/20° C. day/night temperature and 45/65% day/night relative humidity and a photoperiod of 14 hours.
(§4) The figures in the mesotrione and atrazine columns are g/ha of herbicide applied to the test pots. The figures in the subsequent columns are percentage damage observed 13 days after application of the relevant herbicide composition. The numbers range from 0 (no effect) to 100 (dead plants). The main area of focus for the present invention is the effect on tolerant plants, and the effect on non-tolerant plants was only measured for comparative purposes.

[2] = system: Redroot pigweed (AMARE), normal wild variety (non-tolerant); test: Glasshouse postemergence herbicide test, percentage damage on normal wild (non-tolerant) plants; type: in vivo; settings: rates of Table 1; 13 days after application
Description: as §1, §2, §3, §4

With `CS(=O)(=O)c1ccc(C(=O)C2C(=O)CCCC2=O)c([N+](=O)[O-])c1` [mesotrione] the “damage level on tolerant plants” value ([1]; 0.90 g/ha mesotrione alone) was 2, the “effect on tolerant plants (in words)” value [1] was “causes damage” and the “effect on non-tolerant plants (in words)” value [2] was “causes damage”.

`CCNc1nc(Cl)nc(NC(C)C)n1` [Atrazine, atrazine] was tested, and the “effect on tolerant plants (in words)” value [1] was “no effect at all” and the “effect on non-tolerant plants (in words)” value [2] was “significantly damaging”.
